Like-named read-outs stand apart in the source and are kept apart here. Where only a bound is given, the exact number is not on record here.

Results on 14 compounds are retold here after patent US9708336B2, “Metallo-beta-lactamase inhibitors” (priority 2014, dated 2017).

One test concerns the target VIM-1 (Pseudomonas aeruginosa (strain ATCC 15692 / DSM 22644 / CIP 104116 / JCM 14847 / LMG 12228 / 1C / PRS 101 / PAO1), UniProt A0A0F7KYQ8). The test is described as follows: Enzyme activity: determination of IC50, fluorescence assay with CCF2-FA substrate (VIM-1). The format is biochemical.
In another test the target is IMP-1 (Serratia marcescens, UniProt P52699). The test is described as follows: biochemical. The format is biochemical. To be noted: fluorescence assay with CCF2-FA substrate; read-out: IMP-1 IC50.
Test [1] has as its system Escherichia coli expressing NDM-1 (CLB30005). The test is described as follows: Antibiotic potentiation activity: synergistic concentration (MITC95) with imipenem, OD600 growth. The format is cell-based. To be noted: concentration giving 95% inhibition of bacterial growth. The method in brief: (§1)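 Steps: colonies grown overnight at 35 °C; resuspended in saline to OD600 0.11–0.15 by strain; diluted 1:100 into 1.1× CAMHB; imipenem then compound added (antibiotic 4 μg/ml in assay); incubated 35 °C for 22–24 h; absorbance measured.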

Test [2] concerns Serratia marcescens expressing IMP-1 (CL5741). Described as above. The format is cell-based. To be noted: concentration giving 95% inhibition of bacterial growth. In outline:
as §1

Test [3] concerns Klebsiella pneumoniae expressing VIM-1 (IHMA599644). The test is described as above. The class given is cell-based. The conditions noted are these: concentration giving 95% inhibition of bacterial growth. The method in brief:
as §1

The target in another test is NDM-1 (Klebsiella pneumoniae, UniProt C7C422). The experiment in a line: biochemical. The class given is biochemical. The conditions noted are these: fluorescence assay with CCF2-FA substrate; read-out: NDM-1 IC50.
The mark [4] stands for this setting: VIM-1 IC50, fluorescence assay with CCF2-FA substrate.
Setting [5] is: fluorescence assay with CCF2-FA substrate, read-out: VIM-1 IC50.

Sequence of IMP-1 (P52699 whole entry, looked up): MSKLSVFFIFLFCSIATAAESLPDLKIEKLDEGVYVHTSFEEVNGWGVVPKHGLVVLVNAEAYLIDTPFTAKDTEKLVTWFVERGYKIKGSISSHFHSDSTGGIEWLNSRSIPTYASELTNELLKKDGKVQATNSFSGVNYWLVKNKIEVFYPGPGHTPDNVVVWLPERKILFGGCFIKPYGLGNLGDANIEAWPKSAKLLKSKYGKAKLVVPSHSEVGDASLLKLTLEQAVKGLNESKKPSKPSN
Sequence of NDM-1 (C7C422 whole entry, looked up, species assumed): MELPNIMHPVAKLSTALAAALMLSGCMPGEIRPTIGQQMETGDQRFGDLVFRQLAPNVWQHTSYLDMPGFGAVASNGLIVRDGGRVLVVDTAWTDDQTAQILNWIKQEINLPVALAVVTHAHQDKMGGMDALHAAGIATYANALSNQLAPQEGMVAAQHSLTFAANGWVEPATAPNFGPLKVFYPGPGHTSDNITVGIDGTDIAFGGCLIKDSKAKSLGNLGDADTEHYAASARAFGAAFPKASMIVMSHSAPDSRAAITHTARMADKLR

As a reminder, the IC50 is the concentration needed to halve the response being measured. For the compound `NS(=O)(=O)c1cccc(-c2cncc(F)c2)c1-c1nn[nH]n1` [Example 83, 3-(5-fluoropyridin-3-yl)-2-(2H-tetrazol-5-yl)benzenesulfonamide], the half-inhibitory concentration (IC50) on VIM-1 (setting [4]) amounted to 0.0436 µM; on IMP-1 it was 0.52 µM; at NDM-1, 0.00597 µM. Besides, the “Escherichia coli expressing NDM-1 (CLB 30005) MITC95” value in test [1] was 0.3906 µM. Besides, the “Serratia marcescens expressing IMP-1 (CL5741) MITC95” value in test [2] was determined as 50 µM. Also, in test [3], the “Klebsiella pneumoniae expressing VIM-1 (IHMA 599644) MITC95” value was 25 µM.

Consider `NS(=O)(=O)c1cccc(-c2ccc3[nH]c(=O)[nH]c3c2)c1-c1nn[nH]n1` [Example 84, 3-(2-oxo-2,3-dihydro-1H-benzimidazol-5-yl)-2-(2H-tetrazol-5-yl)benzenesulfonamide], for which the results for the IC50 on VIM-1 (setting [5]), at IMP-1 and on NDM-1 were 0.0232 µM, 0.708 µM and 0.00308 µM, respectively. The “Escherichia coli expressing NDM-1 (CLB 30005) MITC95” value in test [1] came to 0.7813 µM. Moreover, the “Serratia marcescens expressing IMP-1 (CL5741) MITC95” value in test [2] stood at 50 µM. Further, the “Klebsiella pneumoniae expressing VIM-1 (IHMA 599644) MITC95” value in test [3] was determined as 6.25 µM.

For the compound `NS(=O)(=O)c1cccc(-c2ccc3c(c2)CCCO3)c1-c1nn[nH]n1` [Example 85, 3-(3,4-dihydro-2H-chromen-6-yl)-2-(2H-tetrazol-5-yl)benzenesulfonamide], the IC50 was determined as 0.028 µM on VIM-1 (setting [5]), 0.0946 µM at IMP-1 and 0.00181 µM on NDM-1. Moreover, in test [1], the “Escherichia coli expressing NDM-1 (CLB 30005) MITC95” value amounted to 2.344 µM. The “Serratia marcescens expressing IMP-1 (CL5741) MITC95” value in test [2] came out at 37.5 µM. The “Klebsiella pneumoniae expressing VIM-1 (IHMA 599644) MITC95” value in test [3] turned out to be 150 µM.

Consider `CS(=O)(=O)Nc1cccc(-c2cccc(S(N)(=O)=O)c2-c2nn[nH]n2)c1` [Example 86, 3′-[(methylsulfonyl)amino]-2-(2H-tetrazol-5-yl)biphenyl-3-sulfonamide], for which the IC50 at VIM-1 (setting [5]) worked out at 1.07 µM; on IMP-1, 0.0674 µM; at NDM-1, 0.011 µM. In addition, the “Escherichia coli expressing NDM-1 (CLB 30005) MITC95” value in test [1] is 0.7813 µM. For the same compound, the “Serratia marcescens expressing IMP-1 (CL5741) MITC95” value in test [2] came out at 3.125 µM. Also, the “Klebsiella pneumoniae expressing VIM-1 (IHMA 599644) MITC95” value in test [3] was 200 µM.

On to `CN(C)CCNC(=O)c1ccc(-c2cccc(S(N)(=O)=O)c2-c2nn[nH]n2)cc1` [Example 87, N-[2-(dimethylamino)ethyl]-3′-sulfamoyl-2′-(2H-tetrazol-5-yl)biphenyl-4-carboxamide], for which the IC50 on VIM-1 (setting [5]) is 2.09 µM; at IMP-1 it was 0.908 µM; at NDM-1, 0.0955 µM. Besides, the “Escherichia coli expressing NDM-1 (CLB 30005) MITC95” value in test [1] was found to be 3.906 µM. Besides, in test [2], the “Serratia marcescens expressing IMP-1 (CL5741) MITC95” value was 18.75 µM. Besides, the “Klebsiella pneumoniae expressing VIM-1 (IHMA 599644) MITC95” value in test [3] amounted to 200 µM.

Take `CONC(=O)c1ccc(-c2cccc(S(N)(=O)=O)c2-c2nn[nH]n2)cc1` [Example 88, N-methoxy-3′-sulfamoyl-2′-(2H-tetrazol-5-yl)biphenyl-4-carboxamide]: the IC50 at VIM-1 (setting [5]) worked out at 0.243 µM; on IMP-1 it was 0.0873 µM; on NDM-1, 0.00298 µM. Besides, the “Escherichia coli expressing NDM-1 (CLB 30005) MITC95” value in test [1] came out at 1.953 µM. For the same compound, the “Serratia marcescens expressing IMP-1 (CL5741) MITC95” value in test [2] came out at 12.5 µM. Moreover, in test [3], the “Klebsiella pneumoniae expressing VIM-1 (IHMA 599644) MITC95” value was 100 µM.

As to `NS(=O)(=O)c1cccc(-c2ccc3cn[nH]c3c2)c1-c1nn[nH]n1` [Example 90, 3-(1H-indazol-6-yl)-2-(2H-tetrazol-5-yl)benzenesulfonamide], the 50% inhibitory concentration (IC50) came to 0.0155 µM on VIM-1 (setting [5]), 0.197 µM at IMP-1 and 0.00224 µM on NDM-1. In test [1], the “Escherichia coli expressing NDM-1 (CLB 30005) MITC95” value turned out to be 0.5859 µM. Also, the “Serratia marcescens expressing IMP-1 (CL5741) MITC95” value in test [2] is 25 µM. Moreover, the “Klebsiella pneumoniae expressing VIM-1 (IHMA 599644) MITC95” value in test [3] came out at 12.5 µM.

As for `COc1ncc(-c2cccc(S(N)(=O)=O)c2-c2nn[nH]n2)cn1` [Example 91, 3-(2-methoxypyrimidin-5-yl)-2-(2H-tetrazol-5-yl)benzenesulfonamide], the concentration for half-maximal inhibition (IC50) is 0.18 µM at VIM-1 (setting [5]), 0.83 µM on IMP-1 and 0.0275 µM at NDM-1. The “Escherichia coli expressing NDM-1 (CLB 30005) MITC95” value in test [1] was 0.7813 µM. In test [2], the “Serratia marcescens expressing IMP-1 (CL5741) MITC95” value came to 50 µM. Moreover, the “Klebsiella pneumoniae expressing VIM-1 (IHMA 599644) MITC95” value in test [3] was 75 µM.

For `NS(=O)(=O)c1cccc(-c2cnc(N3CCOCC3)nc2)c1-c1nn[nH]n1` [Example 94, 3-(2-morpholin-4-ylpyrimidin-5-yl)-2-(2H-tetrazol-5-yl)benzenesulfonamide], the IC50 at VIM-1 (setting [5]) is 0.234 µM; at IMP-1, 0.164 µM; on NDM-1, 0.00632 µM. Also, the “Escherichia coli expressing NDM-1 (CLB 30005) MITC95” value in test [1] stood at 2.344 µM. Besides, the “Serratia marcescens expressing IMP-1 (CL5741) MITC95” value in test [2] is 12.5 µM. For the same compound, the “Klebsiella pneumoniae expressing VIM-1 (IHMA 599644) MITC95” value in test [3] was determined as 100 µM.

In the case of `NS(=O)(=O)c1cccc(-c2ccnn2Cc2ccccc2)c1-c1nn[nH]n1` [Example 95, 3-(1-benzyl-1H-pyrazol-5-yl)-2-(2H-tetrazol-5-yl)benzenesulfonamide], the values for the IC50 against VIM-1 (setting [4]), on IMP-1 and on NDM-1 were 0.375 µM, 0.534 µM and 0.00151 µM, respectively. In addition, in test [1], the “Escherichia coli expressing NDM-1 (CLB 30005) MITC95” value was 3.906 µM. Also, the “Serratia marcescens expressing IMP-1 (CL5741) MITC95” value in test [2] worked out at 106.3 µM. In addition, the “Klebsiella pneumoniae expressing VIM-1 (IHMA 599644) MITC95” value in test [3] is over 200 µM.

`NS(=O)(=O)c1cccc(-c2csc3ccccc23)c1-c1nn[nH]n1` [Example 96, 3-(1-benzothiophen-3-yl)-2-(2H-tetrazol-5-yl)benzenesulfonamide]: the IC50 at VIM-1 (setting [5]) stood at 0.00355 µM; at IMP-1, 0.109 µM; on NDM-1, 0.00131 µM. For the same compound, the “Escherichia coli expressing NDM-1 (CLB 30005) MITC95” value in test [1] came to 1.758 µM. Further, in test [2], the “Serratia marcescens expressing IMP-1 (CL5741) MITC95” value came to 15.63 µM. In addition, the “Klebsiella pneumoniae expressing VIM-1 (IHMA 599644) MITC95” value in test [3] came to 25 µM.

As to `Cn1ccc(-c2cccc(S(N)(=O)=O)c2-c2nn[nH]n2)n1` [Example 97, 3-(1-methyl-1H-pyrazol-3-yl)-2-(2H-tetrazol-5-yl)benzenesulfonamide], the results for the IC50 on VIM-1 (setting [5]), at IMP-1 and on NDM-1 were 1.61 µM, 1.57 µM and 0.0711 µM, respectively. For the same compound, the “Escherichia coli expressing NDM-1 (CLB 30005) MITC95” value in test [1] amounted to 0.5859 µM. Moreover, the “Serratia marcescens expressing IMP-1 (CL5741) MITC95” value in test [2] stood at 18.75 µM. Also, in test [3], the “Klebsiella pneumoniae expressing VIM-1 (IHMA 599644) MITC95” value amounted to 200 µM.

As to `N#Cc1ccc2[nH]c(-c3cccc(S(N)(=O)=O)c3-c3nn[nH]n3)cc2c1` [Example 99, 3-(5-cyano-1H-indol-2-yl)-2-(2H-tetrazol-5-yl)benzenesulfonamide], the IC50 on VIM-1 (setting [5]) was determined as 0.104 µM; on IMP-1, 0.208 µM; at NDM-1, 0.00698 µM. For the same compound, the “Escherichia coli expressing NDM-1 (CLB 30005) MITC95” value in test [1] was 9.375 µM. In test [2], the “Serratia marcescens expressing IMP-1 (CL5741) MITC95” value was 28.13 µM. Further, in test [3], the “Klebsiella pneumoniae expressing VIM-1 (IHMA 599644) MITC95” value was over 200 µM.

`NS(=O)(=O)c1cccc(-c2cnn(Cc3ccncc3)c2)c1-c1nn[nH]n1` [Example 100, 3-[1-(pyridin-4-ylmethyl)-1H-pyrazol-4-yl]-2-(2H-tetrazol-5-yl)benzenesulfonamide]: the results for the 50% inhibitory concentration (IC50) on VIM-1 (setting [5]), on IMP-1 and at NDM-1 were 0.94 µM, 0.146 µM and 0.0296 µM, respectively. Further, the “Escherichia coli expressing NDM-1 (CLB 30005) MITC95” value in test [1] is 7.031 µM. Moreover, the “Serratia marcescens expressing IMP-1 (CL5741) MITC95” value in test [2] came out at 14.06 µM. The “Klebsiella pneumoniae expressing VIM-1 (IHMA 599644) MITC95” value in test [3] is over 200 µM.
